Results as given in the kinase profiling compilation of Christmann-Franck et al. (2016).

What was measured:
Experiment in all cases: Caliper, Mobility shift assay off-chip
ABL1 (human) = ABL1 (human) (UniProt P00519)
ABL2 (human) = ABL2 (human) (UniProt P42684)
AKT3 (human) = AKT3 (human) (UniProt Q9Y243)
BRSK1 (human) = BRSK1 (human) (UniProt Q8TDC3)
BRSK2 (human) = BRSK2 (human) (UniProt Q8IWQ3)
CAMK2B (human) = CAMK2B (human) (UniProt Q13554)
CAMK2G (human) = CAMK2G (human) (UniProt Q13555)
CDK2 (human) = CDK2 (human) (UniProt P24941)
CHEK1 (human) = CHEK1 (human) (UniProt O14757)
CSNK1D (human) = CSNK1D (human) (UniProt P48730)
DCLK2 (human) = DCLK2 (human) (UniProt Q8N568)
DYRK1A (human) = DYRK1A (human) (UniProt Q13627)
FGFR2 (human) = FGFR2 (human) (UniProt P21802)
FGFR3 (human) = FGFR3 (human) (UniProt P22607)
GSK3B (human) = GSK3B (human) (UniProt P49841)
HCK (human) = HCK (human) (UniProt P08631)
IGF1R (human) = IGF1R (human) (UniProt P08069)
IRAK4 (human) = IRAK4 (human) (UniProt Q9NWZ3)
KDR (human) = KDR (human) (UniProt P35968)
LCK (human) = LCK (human) (UniProt P06239)
LYN (human) = LYN (human) (UniProt P07948)
MAP4K4 (human) = MAP4K4 (human) (UniProt O95819)
MAPK13 (human) = MAPK13 (human) (UniProt O15264)
MAPKAPK3 (human) = MAPKAPK3 (human) (UniProt Q16644)
PDGFRA (human) = PDGFRA (human) (UniProt P16234)
PIM1 (human) = PIM1 (human) (UniProt P11309)
PRKACA (human) = PRKACA (human) (UniProt P17612)
PRKCH (human) = PRKCH (human) (UniProt P24723)
PRKCQ (human) = PRKCQ (human) (UniProt Q04759)
PRKCZ (human) = PRKCZ (human) (UniProt Q05513)
RPS6KA1 KD1 KD2 (human) = RPS6KA1 KD1 KD2 (human) (UniProt Q15418)
SGK3 (human) = SGK3 (human) (UniProt Q96BR1)
SRC (human) = SRC (human) (UniProt P12931)
TSSK1B (human) = TSSK1B (human) (UniProt Q9BXA7)

Sequence of ABL2 (human) (P42684 whole entry, looked up): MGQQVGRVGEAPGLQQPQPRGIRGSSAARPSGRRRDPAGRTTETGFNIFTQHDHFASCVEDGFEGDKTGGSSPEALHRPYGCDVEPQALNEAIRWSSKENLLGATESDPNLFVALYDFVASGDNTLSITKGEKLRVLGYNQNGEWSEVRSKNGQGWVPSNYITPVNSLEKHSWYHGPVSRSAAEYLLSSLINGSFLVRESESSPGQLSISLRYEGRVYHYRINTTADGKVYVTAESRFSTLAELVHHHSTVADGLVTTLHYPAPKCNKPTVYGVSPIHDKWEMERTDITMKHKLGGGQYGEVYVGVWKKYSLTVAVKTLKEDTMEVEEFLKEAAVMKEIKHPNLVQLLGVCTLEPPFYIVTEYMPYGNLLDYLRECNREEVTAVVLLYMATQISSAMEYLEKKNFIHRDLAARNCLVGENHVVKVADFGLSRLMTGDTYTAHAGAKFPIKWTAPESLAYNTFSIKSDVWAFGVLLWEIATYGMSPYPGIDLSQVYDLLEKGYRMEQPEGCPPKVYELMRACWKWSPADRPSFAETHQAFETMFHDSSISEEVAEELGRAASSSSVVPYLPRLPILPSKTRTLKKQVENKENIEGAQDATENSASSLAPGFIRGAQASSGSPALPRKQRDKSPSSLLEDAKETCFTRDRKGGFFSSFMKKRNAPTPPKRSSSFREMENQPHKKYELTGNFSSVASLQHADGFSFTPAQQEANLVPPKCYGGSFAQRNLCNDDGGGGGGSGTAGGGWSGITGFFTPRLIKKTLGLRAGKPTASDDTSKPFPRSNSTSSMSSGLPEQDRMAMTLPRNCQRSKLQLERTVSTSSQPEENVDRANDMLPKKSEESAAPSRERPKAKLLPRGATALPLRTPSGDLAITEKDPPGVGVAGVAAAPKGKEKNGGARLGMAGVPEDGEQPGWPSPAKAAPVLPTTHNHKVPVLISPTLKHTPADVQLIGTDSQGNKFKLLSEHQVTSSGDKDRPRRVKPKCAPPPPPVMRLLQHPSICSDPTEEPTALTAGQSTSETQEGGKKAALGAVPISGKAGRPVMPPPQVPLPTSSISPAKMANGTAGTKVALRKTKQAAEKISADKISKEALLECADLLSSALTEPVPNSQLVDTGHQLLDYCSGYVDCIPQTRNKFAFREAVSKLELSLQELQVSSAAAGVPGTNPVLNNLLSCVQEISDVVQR
Sequence of LYN (human) (P07948 whole entry, looked up): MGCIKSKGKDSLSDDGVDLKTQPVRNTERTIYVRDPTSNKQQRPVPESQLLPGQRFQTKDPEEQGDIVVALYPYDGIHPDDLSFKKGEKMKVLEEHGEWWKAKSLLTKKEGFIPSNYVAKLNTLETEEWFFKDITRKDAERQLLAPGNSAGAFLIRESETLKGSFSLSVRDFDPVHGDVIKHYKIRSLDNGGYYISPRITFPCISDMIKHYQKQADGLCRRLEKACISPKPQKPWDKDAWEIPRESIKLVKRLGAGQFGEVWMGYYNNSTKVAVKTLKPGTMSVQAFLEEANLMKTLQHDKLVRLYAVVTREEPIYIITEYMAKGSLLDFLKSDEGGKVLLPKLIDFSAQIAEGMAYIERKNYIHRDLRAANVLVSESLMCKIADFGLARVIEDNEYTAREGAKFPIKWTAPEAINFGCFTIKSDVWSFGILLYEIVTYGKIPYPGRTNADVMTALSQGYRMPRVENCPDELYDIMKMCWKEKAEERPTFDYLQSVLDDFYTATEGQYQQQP
Sequence of CAMK2G (human) (Q13555 whole entry, looked up): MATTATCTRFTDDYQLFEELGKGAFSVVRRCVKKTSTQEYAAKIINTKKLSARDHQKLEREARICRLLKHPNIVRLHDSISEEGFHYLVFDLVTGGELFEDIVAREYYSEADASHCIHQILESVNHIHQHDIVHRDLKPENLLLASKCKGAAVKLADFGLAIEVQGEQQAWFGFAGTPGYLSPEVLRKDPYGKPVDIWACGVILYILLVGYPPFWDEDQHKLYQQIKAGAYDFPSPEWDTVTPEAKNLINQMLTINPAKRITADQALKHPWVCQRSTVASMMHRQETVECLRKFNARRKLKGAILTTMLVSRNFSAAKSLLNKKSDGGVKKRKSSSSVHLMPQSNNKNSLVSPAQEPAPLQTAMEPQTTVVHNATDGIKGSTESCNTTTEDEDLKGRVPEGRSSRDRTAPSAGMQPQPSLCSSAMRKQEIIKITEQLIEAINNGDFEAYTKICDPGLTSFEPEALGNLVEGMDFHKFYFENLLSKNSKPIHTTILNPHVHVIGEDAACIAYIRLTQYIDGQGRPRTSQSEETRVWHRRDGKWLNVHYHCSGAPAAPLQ
Sequence of DCLK2 (human) (Q8N568 whole entry, looked up): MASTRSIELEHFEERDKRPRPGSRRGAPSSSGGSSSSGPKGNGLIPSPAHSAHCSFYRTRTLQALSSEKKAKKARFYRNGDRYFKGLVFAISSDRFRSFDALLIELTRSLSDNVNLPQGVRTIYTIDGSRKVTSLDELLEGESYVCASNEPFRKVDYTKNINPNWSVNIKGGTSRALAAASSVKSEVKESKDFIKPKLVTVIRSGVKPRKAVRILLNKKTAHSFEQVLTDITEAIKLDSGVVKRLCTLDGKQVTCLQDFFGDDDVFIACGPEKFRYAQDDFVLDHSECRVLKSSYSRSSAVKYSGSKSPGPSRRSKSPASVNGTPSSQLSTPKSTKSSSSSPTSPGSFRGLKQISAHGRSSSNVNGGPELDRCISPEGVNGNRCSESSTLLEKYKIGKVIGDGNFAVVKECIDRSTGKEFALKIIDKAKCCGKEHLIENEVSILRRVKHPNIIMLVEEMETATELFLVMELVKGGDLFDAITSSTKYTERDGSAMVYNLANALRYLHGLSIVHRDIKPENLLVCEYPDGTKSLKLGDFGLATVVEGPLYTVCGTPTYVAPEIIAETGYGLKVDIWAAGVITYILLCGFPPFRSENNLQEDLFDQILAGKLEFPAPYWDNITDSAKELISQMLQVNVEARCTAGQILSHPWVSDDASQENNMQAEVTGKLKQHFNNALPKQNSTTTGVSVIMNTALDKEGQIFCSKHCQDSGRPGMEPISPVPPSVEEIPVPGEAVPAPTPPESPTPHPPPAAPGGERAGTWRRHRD
Sequence of LCK (human) (P06239 whole entry, looked up): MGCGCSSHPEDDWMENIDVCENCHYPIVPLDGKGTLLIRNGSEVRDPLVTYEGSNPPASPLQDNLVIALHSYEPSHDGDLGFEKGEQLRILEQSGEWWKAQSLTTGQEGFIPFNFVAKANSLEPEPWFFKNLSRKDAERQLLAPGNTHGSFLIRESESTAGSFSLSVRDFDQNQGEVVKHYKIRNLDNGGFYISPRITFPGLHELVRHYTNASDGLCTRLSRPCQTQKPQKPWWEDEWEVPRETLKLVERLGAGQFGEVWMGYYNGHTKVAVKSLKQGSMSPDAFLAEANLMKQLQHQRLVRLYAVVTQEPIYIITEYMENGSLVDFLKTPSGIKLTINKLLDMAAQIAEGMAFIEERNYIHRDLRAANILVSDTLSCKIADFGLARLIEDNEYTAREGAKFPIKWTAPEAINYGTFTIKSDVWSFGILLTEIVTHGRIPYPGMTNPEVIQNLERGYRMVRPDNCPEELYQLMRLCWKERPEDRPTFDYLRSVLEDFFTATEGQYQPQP
Sequence of FGFR2 (human) (P21802 whole entry, looked up): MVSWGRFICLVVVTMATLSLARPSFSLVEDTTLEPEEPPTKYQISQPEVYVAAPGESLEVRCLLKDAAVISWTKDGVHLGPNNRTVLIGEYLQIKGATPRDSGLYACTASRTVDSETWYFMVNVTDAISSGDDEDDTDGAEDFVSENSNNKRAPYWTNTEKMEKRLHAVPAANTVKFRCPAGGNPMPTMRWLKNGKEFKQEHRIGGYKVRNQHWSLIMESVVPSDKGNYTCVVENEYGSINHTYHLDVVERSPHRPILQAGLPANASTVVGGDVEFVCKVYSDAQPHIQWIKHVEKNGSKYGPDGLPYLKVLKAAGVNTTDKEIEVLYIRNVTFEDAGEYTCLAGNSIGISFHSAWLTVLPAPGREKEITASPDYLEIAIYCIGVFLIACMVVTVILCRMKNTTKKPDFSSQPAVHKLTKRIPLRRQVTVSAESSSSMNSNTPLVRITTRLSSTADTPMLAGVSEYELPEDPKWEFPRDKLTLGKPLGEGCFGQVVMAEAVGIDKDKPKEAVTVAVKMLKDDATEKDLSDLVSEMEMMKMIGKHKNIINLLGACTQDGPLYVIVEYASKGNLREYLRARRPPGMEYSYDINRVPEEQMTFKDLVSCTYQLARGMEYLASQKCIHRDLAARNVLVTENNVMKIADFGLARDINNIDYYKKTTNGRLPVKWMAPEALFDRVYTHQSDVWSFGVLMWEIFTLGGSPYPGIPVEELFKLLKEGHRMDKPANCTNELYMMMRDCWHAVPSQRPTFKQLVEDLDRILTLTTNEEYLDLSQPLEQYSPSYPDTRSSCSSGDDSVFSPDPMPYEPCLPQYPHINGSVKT
Sequence of PRKCZ (human) (Q05513 whole entry, looked up): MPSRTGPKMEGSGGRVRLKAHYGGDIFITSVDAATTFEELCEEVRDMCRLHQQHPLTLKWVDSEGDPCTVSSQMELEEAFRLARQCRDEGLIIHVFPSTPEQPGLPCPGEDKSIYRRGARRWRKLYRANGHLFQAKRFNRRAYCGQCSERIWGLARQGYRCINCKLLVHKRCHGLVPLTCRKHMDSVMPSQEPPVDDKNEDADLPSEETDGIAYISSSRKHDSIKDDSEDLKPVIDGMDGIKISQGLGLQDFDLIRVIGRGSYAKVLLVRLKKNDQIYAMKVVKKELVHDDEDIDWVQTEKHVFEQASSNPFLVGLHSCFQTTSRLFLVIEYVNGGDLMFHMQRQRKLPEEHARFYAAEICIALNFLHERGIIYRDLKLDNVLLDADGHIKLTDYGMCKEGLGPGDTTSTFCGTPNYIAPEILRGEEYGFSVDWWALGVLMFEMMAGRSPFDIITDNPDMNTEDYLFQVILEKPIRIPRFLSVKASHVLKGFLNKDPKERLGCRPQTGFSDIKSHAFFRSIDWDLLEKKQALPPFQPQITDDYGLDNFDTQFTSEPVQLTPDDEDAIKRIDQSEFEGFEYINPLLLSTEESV

inhibition (ABL1 (human); compound 0.1 µM): -1% | inhibition (ABL1 (human); compound 1.0 µM): 1.6% | inhibition (ABL2 (human); compound 0.1 µM): 2.6% | inhibition (ABL2 (human); compound 1.0 µM): -3.4% | inhibition (AKT3 (human); compound 0.1 µM): -12.5% | inhibition (AKT3 (human); compound 1.0 µM): 2.1% | inhibition (BRSK1 (human); compound 0.1 µM): -1.6% | inhibition (BRSK1 (human); compound 1.0 µM): 1.6% | inhibition (BRSK2 (human); compound 0.1 µM): 3.4% | inhibition (BRSK2 (human); compound 1.0 µM): -3.3% | inhibition (CAMK2B (human); compound 0.1 µM): -1.6% | inhibition (CAMK2B (human); compound 1.0 µM): 0.8% | inhibition (CAMK2G (human); compound 0.1 µM): -3.5% | inhibition (CAMK2G (human); compound 1.0 µM): -2.8% | inhibition (CDK2 (human); compound 0.1 µM): -10% | inhibition (CDK2 (human); compound 1.0 µM): -6.6% | inhibition (CHEK1 (human); compound 0.1 µM): -0.6% | inhibition (CHEK1 (human); compound 1.0 µM): 2.9% | inhibition (CSNK1D (human); compound 0.1 µM): -7.1% | inhibition (CSNK1D (human); compound 1.0 µM): -2.9% | inhibition (DCLK2 (human); compound 0.1 µM): 2% | inhibition (DCLK2 (human); compound 1.0 µM): 5.8% | inhibition (DYRK1A (human); compound 0.1 µM): 5.6% | inhibition (DYRK1A (human); compound 1.0 µM): -6.7% | inhibition (FGFR2 (human); compound 0.1 µM): 1.4% | inhibition (FGFR2 (human); compound 1.0 µM): 7.8% | inhibition (FGFR3 (human); compound 0.1 µM): 0.5% | inhibition (FGFR3 (human); compound 1.0 µM): 4.9% | inhibition (GSK3B (human); compound 0.1 µM): -0.6% | inhibition (GSK3B (human); compound 1.0 µM): -3.3% | inhibition (HCK (human); compound 0.1 µM): -1.8% | inhibition (HCK (human); compound 1.0 µM): 3.1% | inhibition (IGF1R (human); compound 0.1 µM): -3% | inhibition (IGF1R (human); compound 1.0 µM): 1.3% | inhibition (IRAK4 (human); compound 0.1 µM): -10.2% | inhibition (IRAK4 (human); compound 1.0 µM): 0.3% | inhibition (KDR (human); compound 0.1 µM): 4.9% | inhibition (KDR (human); compound 1.0 µM): 16.8% | inhibition (LCK (human); compound 0.1 µM): -3.4% | inhibition (LCK (human); compound 1.0 µM): -2.9% | inhibition (LYN (human); compound 0.1 µM): 3.5% | inhibition (LYN (human); compound 1.0 µM): -3.2% | inhibition (MAP4K4 (human); compound 0.1 µM): 5% | inhibition (MAP4K4 (human); compound 1.0 µM): -0.2% | inhibition (MAPK13 (human); compound 0.1 µM): -1.8% | inhibition (MAPK13 (human); compound 1.0 µM): 3.9% | inhibition (MAPKAPK3 (human); compound 0.1 µM): -0.3% | inhibition (MAPKAPK3 (human); compound 1.0 µM): 0.5% | inhibition (PDGFRA (human); compound 0.1 µM): 1.5% | inhibition (PDGFRA (human); compound 1.0 µM): 3.9% | inhibition (PIM1 (human); compound 0.1 µM): -2.4% | inhibition (PIM1 (human); compound 1.0 µM): -4.4% | inhibition (PRKACA (human); compound 0.1 µM): 2.5% | inhibition (PRKACA (human); compound 1.0 µM): 4.8% | inhibition (PRKCH (human); compound 0.1 µM): 7.2% | inhibition (PRKCH (human); compound 1.0 µM): -8.7% | inhibition (PRKCQ (human); compound 0.1 µM): 3.3% | inhibition (PRKCQ (human); compound 1.0 µM): 0.5% | inhibition (PRKCZ (human); compound 0.1 µM): 0.7% | inhibition (PRKCZ (human); compound 1.0 µM): 1.2% | inhibition (RPS6KA1 KD1 KD2 (human); compound 0.1 µM): -2.2% | inhibition (RPS6KA1 KD1 KD2 (human); compound 1.0 µM): 4% | inhibition (SGK3 (human); compound 0.1 µM): 9% | inhibition (SGK3 (human); compound 1.0 µM): 1% | inhibition (SRC (human); compound 0.1 µM): 1.1% | inhibition (SRC (human); compound 1.0 µM): 6.6% | inhibition (TSSK1B (human); compound 0.1 µM): 5.4% | inhibition (TSSK1B (human); compound 1.0 µM): -1.6%
SMILES: O=C(CCc1ccc2ccc3ncc(C4CCNCC4)cc3c(=O)c2c1)NCc1ccccn1
